The source of these data is patent US7396655B2, “Method for enhancing activity of luciferase with fluorescence activity” (Chisso Corporation, priority 2005, dated 2008).

For data set [1], the target named is T1, BFP-aq (Aequorea victoria, UniProt P07164). Description: biochemical. Type of data set: biochemical. Set-up: The recombinant apoaequorins encoded by piP-HE is composed of 191 amino acids, whose N-terminus starts from Ala-Asn-Ser-; made in house; host or cells: E. coli strain WA802. Particulars: for Luminescence activity (%) Imax: 50 mM Tris-HCl pH 8.0, 25° C., coelenterazine 1 μg, no compound = 100%. The procedure: (§1) Solutions of 50 mM Tris-HCl (pH 8.0), each containing various commercial organic compounds shown in Table 3, were prepared and pre-warmed at 25° C. The substrate coelenterazine (1 μg) was added to the solutions (200 μl) containing each of these compounds.

Data set [2] has as its target T2, BFP-aq, luciferase with fluorescence activity derived from aequorin (recombinant apoaequorin, SEQ ID NO: 1 with N-terminal Val replaced by Ala-Asn-Ser; complex with coelenteramide and calcium ions) (Aequorea victoria, UniProt P02592).
T2 construct: The recombinant apoaequorins encoded by piP-HE is composed of 191 amino acids, whose N-terminus starts from Ala-Asn-Ser-; made in house; host or cells: E. coli strain WA802 (expression vector piP-HE)
T2 sequence (P02592 with tags, fused parts or gaps): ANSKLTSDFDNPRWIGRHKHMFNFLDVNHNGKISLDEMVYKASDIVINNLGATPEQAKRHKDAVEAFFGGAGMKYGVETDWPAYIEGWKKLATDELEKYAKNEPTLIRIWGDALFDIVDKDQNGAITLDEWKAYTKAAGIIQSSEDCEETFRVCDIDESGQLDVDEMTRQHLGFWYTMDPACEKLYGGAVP
In words: Enhancing effect of organic compounds on BFP-aq luminescence with coelenterazine as substrate (Table 4). It is filed as biochemical. The note with it: pH 8.0, 25° C., no addition = 100%; for activity at 30000 µM: 30 mM compound; for activity at 150000 µM: 150 mM compound; for activity at 300000 µM: 300 mM compound; for activity at 3 M: 3000 mM compound.
Text: To obtain recombinant apoaequorins, the apoaequorin gene expression vector piP-HE (Japanese Laid-Open Application No. 1989-132397) constructed from pAQ440 harboring the apoaequorin gene (Japanese Laid-Open Application No. 1986-135586) was used. The recombinant apoaequorins encoded by piP-HE is composed of 191 amino acids, whose N-terminus starts from Ala-Asn-Ser-(Val of the N-terminus of SEQ ID NO: 1 in the sequence listing was replaced by Ala-Asn-Ser-).
In a VIVASPIN 2 column, the concentrated aequorin solution was overlaid with 0.9 ml of 50 mM Tris-HCl (pH 7.6) containing 5 mM calcium chloride (Wako Pure Chemicals Industries, Ltd.) and 2 mM dithiothreitol (Wako Pure Chemicals Industries, Ltd.) to trigger continuous light emission and the column was allowed to stand at […] for 24 hours or longer. […] Further, 2 ml of 50 mM Tris-HCI (pH 7.6) containing 5 mM calcium chloride (Wako Pure Chemicals Industries, Ltd.) and 2 mM dithiothreitol (Wako Pure Chemicals Industries, Ltd.) was loaded onto the VIVASPIN 2 column and the column was centrifuged under the identical conditions and then washed.
as §1

The conditions of data set [3]: cited from earlier work.
The target of data set [4] is T1, BFP-aq. Type of data set: biochemical. Set-up: The recombinant apoaequorins encoded by piP-HE is composed of 191 amino acids, whose N-terminus starts from Ala-Asn-Ser-; made in house; host or cells: E. coli strain WA802. Particulars: for Relative luminescence activity Imax (%) / Relative luminescence activity Initial velocity (%): substrate 1 μg, BFP-aq 1.2 μg, pH 8.0, coelenterazine without imidazole = 100%. Here is the method:
200 μl of this solution was placed in five vessels, to each of which 1 μg of the substrate coelenterazine (CTZ) and its four analogs: h-CTZ, cp-CTZ, hcp-CTZ, f-CTZ were added.

Substrate in data set [5]: Oc1ccc(Cc2nc3c(Cc4ccccc4)nc(-c4ccc(O)cc4)cn3c2O)cc1
Description: Light-emitting reaction rate of BFP-aq, Lineweaver-Burk plot (Table 6). It is filed as biochemical, Aequorea victoria. The note with it: other: coelenterazine, pH 8.0, 25° C.

[6] abbreviates: pH 8, read-out: Luminescence activity (%) Imax.
[7] abbreviates: pH 8, read-out: Luminescence activity (%) Initial velocity.
The mark [8] stands for this setting: read-out: Luminescence activity, Imax.
Where [9] appears, read: read-out: Luminescence activity, initial velocity.

Structures can show the parent of a compound that is named as a salt. Where two headings read alike, the source gives them in different places.

As to `N=C(N)NCCC[C@H](N)C(=O)O` [L-Arginine], on BFP-aq [1] (setting [6]), the activity at 30000 µM stood at 62% and the activity at 150000 µM was determined as 1%. In addition, at BFP-aq [1] (setting [7]), the activity at 30000 µM was determined as 73% and the activity at 150000 µM amounted to 4%.

Take `N=C(N)N` [Guanidine/hydrochloride]: the values for the activity at 30000 µM in data set [2] (setting [8]) and in data set [2] (setting [9]) were 92% and 130%, respectively. In addition, the activity at 150000 µM in data set [2] (setting [8]) is 109%; in data set [2] (setting [9]), 226%. Moreover, the figures for the activity at 300000 µM in data set [2] (setting [8]) and in data set [2] (setting [9]) were 65% and 118%, respectively. The “Luminescence activity (%) Imax” value at BFP-aq [1] (compound 30 mM) was determined as 92%; at BFP-aq [1] (compound 150 mM), 109%; at BFP-aq [1] (compound 300 mM), 65%.

As for `Cc1ncc[nH]1` [2-Methylimidazole], at BFP-aq [1] (setting [6]), the activity at 30000 µM came out at 63% and the activity at 150000 µM stood at 16%. Further, on BFP-aq [1] (setting [7]), the activity at 30000 µM was 83% and the activity at 150000 µM is 21%.

`CC(N)=O` [Acetamide/hydrochloride]: the results for the activity at 30000 µM in data set [2] (setting [8]) and in data set [2] (setting [9]) were 73% and 132%, respectively. In addition, the figures for the activity at 150000 µM in data set [2] (setting [8]) and in data set [2] (setting [9]) were 31% and 44%, respectively. The activity at 300000 µM came out at 55% in data set [2] (setting [8]) and 95% in data set [2] (setting [9]). The “Luminescence activity (%) Imax” value at BFP-aq [1] (compound 30 mM) came out at 73%; at BFP-aq [1] (compound 150 mM), 31%; on BFP-aq [1] (compound 300 mM), 55%.

Consider `Cc1c[nH]cn1` [4-Methylimidazole], for which the pKa in data set [3] is recorded as 7.5. Also, the activity at 30000 µM amounted to 88% on BFP-aq [1] (setting [6]) and 92% on BFP-aq [1] (setting [7]). The activity at 150000 µM on BFP-aq [1] (setting [6]) was determined as 78%; at BFP-aq [1] (setting [7]) it was 95%.

Take `CCN(CC)CC` [Triethylamine]: the activity at 30000 µM at BFP-aq [1] (setting [6]) and at BFP-aq [1] (setting [7]) was 68% each time. Moreover, the results for the activity at 150000 µM at BFP-aq [1] (setting [6]) and at BFP-aq [1] (setting [7]) were 8% and 12%, respectively.

For the molecule `NC(N)=O` [Urea], the activity at 30000 µM in data set [2] (setting [8]) is 84%; in data set [2] (setting [9]), 113%. Further, the activity at 150000 µM in data set [2] (setting [8]) came out at 89%; in data set [2] (setting [9]), 104%. The activity at 3 M in data set [2] (setting [8]) was determined as 29%; in data set [2] (setting [9]), 57%. The figures for the “Luminescence activity (%) Imax” value at BFP-aq [1], at BFP-aq [1] (compound 30 mM) and on BFP-aq [1] (compound 150 mM) were 29%, 84% and 89%, respectively.

As for `O=C(O)/C=C/c1c[nH]cn1` [Urocanic acid], the pKa in data set [3] was 5.8. The activity at 30000 µM is 44% at BFP-aq [1] (setting [6]) and 31% on BFP-aq [1] (setting [7]).

Regarding `O=c1c(Cc2ccccc2)nc2c(CC3CCCC3)[nH]c(-c3ccc(O)cc3)cn1-2` [hcp-Coelenterazine], the “Suitability as substrate in the BFP-aq light-emitting reaction system” value (from here on “Suitability as substrate”) at BFP-aq [4] was “served as effective substrates”. In addition, at BFP-aq [4] (with 150 mM imidazole), the “Imax relative to coelenterazine without imidazole” value is 4 fold and the “Velocity of light-emitting reaction relative to coelenterazine without imidazole” value is reported as 25 fold.

Regarding `NC(=O)c1nc[nH]c1N` [5-Amino-imidazole-4-carboxamide/hydrochloride], the activity at 30000 µM was 64% in data set [2] (setting [8]) and 48% in data set [2] (setting [9]). Moreover, the figures for the activity at 150000 µM in data set [2] (setting [8]) and in data set [2] (setting [9]) were 0% and 2%, respectively. The “Luminescence activity (%) Imax” value at BFP-aq [1] (compound 30 mM) amounted to 64%; on BFP-aq [1] (compound 150 mM) it was 0%.

In the case of `C[C@H](N)C(=O)O` [L-Alanine], at BFP-aq [1] (setting [6]), the activity at 30000 µM amounted to 88% and the activity at 150000 µM is 77%. For the same molecule, on BFP-aq [1] (setting [7]), the activity at 30000 µM turned out to be 82% and the activity at 150000 µM was determined as 59%.

For `O=c1c(Cc2ccc(O)cc2)nc2c(CC3CCCC3)[nH]c(-c3ccc(O)cc3)cn1-2` [cp-Coelenterazine], at BFP-aq [4], the “Suitability as substrate” value was “served as effective substrates”. In addition, the “Relative luminescence activity Imax (%)” value came out at 138% on BFP-aq [4] (with 150 mM imidazole) and 54% at BFP-aq [4] (without imidazole). Further, the results for the “Relative luminescence activity Initial velocity (%)” value at BFP-aq [4] (with 150 mM imidazole) and on BFP-aq [4] (without imidazole) were 535% and 152%, respectively.

As for `NCC(=O)O` [L-Glycine], the results for the activity at 30000 µM in data set [2] (setting [8]) and in data set [2] (setting [9]) were 87% and 104%, respectively. The activity at 150000 µM in data set [2] (setting [8]) turned out to be 83%; in data set [2] (setting [9]) it was 78%. Further, in data set [3], the pKa is 6.0. Moreover, the “Luminescence activity (%) Imax” value at BFP-aq [1] (compound 30 mM) worked out at 87%; at BFP-aq [1] (compound 150 mM), 83%.

For the molecule `O=c1c(Cc2ccccc2)nc2c(Cc3ccccc3)[nH]c(-c3ccc(O)cc3)cn1-2` [h-Coelenterazine], the “Suitability as substrate” value on BFP-aq [4] is given as “served as effective substrates”.

With `O=c1c(Cc2ccc(F)cc2)nc2c(Cc3ccccc3)[nH]c(-c3ccc(O)cc3)cn1-2` [f-Coelenterazine], the “Suitability as substrate” value on BFP-aq [4] is “served as effective substrates”.

In the case of `NCCCC[C@H](N)C(=O)O` [L-Lysine], at BFP-aq [1] (setting [6]), the activity at 30000 µM came to 60% and the activity at 150000 µM was 1%. On BFP-aq [1] (setting [7]), the activity at 30000 µM turned out to be 66% and the activity at 150000 µM is 10%.

Regarding `N[C@@H](Cc1c[nH]cn1)C(=O)O` [L-Histidine], at BFP-aq [1] (setting [6]), the activity at 30000 µM came to 37% and the activity at 150000 µM was 5%. Besides, at BFP-aq [1] (setting [7]), the activity at 30000 µM is 82% and the activity at 150000 µM is 27%.

`NCCc1c[nH]cn1` [Histamine]: in data set [3], the pKa is recorded as 8.0. Further, the activity at 30000 µM on BFP-aq [1] (setting [6]) came out at 69%; at BFP-aq [1] (setting [7]), 92%. Further, the values for the activity at 150000 µM at BFP-aq [1] (setting [6]) and on BFP-aq [1] (setting [7]) were 22% and 26%, respectively.

B1: BFP-aq, luciferase with fluorescence activity derived from aequorin (recombinant apoaequorin, SEQ ID NO: 1 with N-terminal Val replaced by Ala-Asn-Ser; complex … (protein)
chain: MTSKQYSVKLTSDFDNPRWIGRHKHMFNFLDVNHNGKISLDEMVYKASDIVINNLGATPEQAKRHKDAVEAFFGGAGMKYGVETDWPAYIEGWKKLATDELEKYAKNEPTLIRIWGDALFDIVDKDQNGAITLDEWKAYTKAAGIIQSSEDCEETFRVCDIDESGQLDVDEMTRQHLGFWYTMDPACEKLYGGAVP
notes: The recombinant apoaequorins encoded by piP-HE is composed of 191 amino acids, whose N-terminus starts from Ala-Asn-Ser-; made in house; host or cells: E. coli strain WA802 (expression vector piP-HE)
In the case of B1, the Km in data set [5] (with 150 mM imidazole) turned out to be 9.2 μM μM; in data set [5] (without imidazole), 9.6 μM μM.
